Here are results for one compound from patent publication US20110189199A1, “METHODS FOR P2RY5 MEDIATED REGULATION OF HAIR GROWTH AND MUTANTS THEREOF” (priority 2008, published 2011).

One data set deals with P2RY5 receptor (Homo sapiens, UniProt P43657, DEL128-129/DEL256-257/Q258T). Briefly: Tango P2RY5 U2OS beta-lactamase reporter assay. Format: cell-based. On the procedure:
The Tango™ P2RY5 U2OS antibiotic selected pool cells were plated at 10,000 cells/well into a 384 well clear bottom assay plate in Freestyle™ media. FBS (Fetal Bovine 20%) or a PMA concentration dilution series (in Freestyle™ media) was then added to the plate at the indicated concentrations. The plate was placed at 37° C. 5% CO2 for 24 hours for receptor stimulation followed by betalactamase substrate loading for 2 hours. (The P2RY5 cells were also tested with a 48 hour stimulation time with equivalent results.)
(§1) The antibiotic selected Tango™ P2RY5 U2OS cells were cultured to 80-90% confluence in tissueculture flasks. The growth media was then removed and replaced with Freestyle™ media either with (stimulated) or without (un-stimulated) 20% FBS. The cultures were then placed at 37° C. 5% CO2 for 48 hours for receptor stimulation followed by beta-lactamase substrate loading for 2 hours. Responsive cells were then sorted by FACS into a single pool and three 96 well plates of clones.
The Tango™ P2RY5 U2OS cells were plated at 10,000 cells/well into a 384 well clear bottom assay plate in Freestyle™ media. FBS was then added to half the wells in the assay to a concentration of 20% (stimulated) while the other half of the assay received an equal volume of Freestyle™ Media (un-stimulated). The plate was placed at 37° C. 5% CO2 for 48 hours for receptor stimulation followed by betalactamase substrate loading for 2 hours.
as §1, with “selected FACS sorted responsive cell” for “selected”, “U2OS Pool was” for “U2OS cells were”, “in two tissue culture” for “in tissueculture”, “a green cell pool from the un-stimulated cell sample, and into a blue cell” for “a single”, “of clones from the FBS stimulated sample.” for “of clones.”
The Tango™ P2RY5 U2OS sorted pool cells were plated at 10,000 cells/well into a 384 well clear bottom assay plate in FreeStyle™ media. The dFBS was immediately added to plate to final concentration of 20% by volume (stimulated). An equal volume of Free Style™ media was added to the un-stimulated wells. The plate was placed at 37° C. 5% CO2 for 48 hrs for receptor stimulation followed by beta-lactamase substrate loading for 2 hours.
The Tango™ P2RY5 U2OS sorted pool cells were plated at 10,000 cells/well into a 384 well clear bottom assay plate in FreeStyle™ media. The plate was placed at 37° C. […]
On the technique in general: A reporter such as luciferase makes a cellular process visible.

Data set [1] relates to Tango™ P2RY5 U2OS Clone 10F cells. In words: Cell death at high PMA concentrations in the Tango P2RY5 assay. Format: cell-based. On the procedure:
The Tango™ P2RY5 U2OS Clone 10F cells were plated at 10,000 cells/well into a 384 well clear bottom assay plate in 32 μl/well Freestyle™ medium. 4 μl/well 10× DMSO in Freestyle™ medium was then added to the wells of the assay plate to bring the final DMSO concentration in the wells to 0% (no DMSO), 0.1%, 0.5% or 1.0% DMSO. 4 μl/well PMA (10× in Freestyle™ medium) was immediately added to the plate to the indicated concentrations. The plate was placed at 37° C./5% CO2 for 18 hours for receptor stimulation followed by beta-lactamase substrate loading for 2 hours.
The Tango™ P2RY5 U2OS Clone 10F cells were plated at 10,000 cells/well into two 384 well clear bottom assay plate in 32 μl/well Freestyle™ medium. One plate was placed at 37° C./5% CO2 for 18 hours prior to PMA stimulation for 5 hours while PMA was immediately added to the other plate for an 18 hours stimulation. At the time of stimulation 4 μl/well of a 10× stock of DMSO in Freestyle™ medium was added to the wells of the assay plate to bring the final DMSO concentration in the wells to 0.1% DMSO. 4 μl/well PMA (10× in Freestyle™ medium) was then added to the plate to the indicated concentrations. The plates were placed at 37° C./5% CO2 for 5 or 18 hours for receptor stimulation followed by beta-lactamase substrate loading for 2 h.
Tango™ P2RY5 U2OS clone 10F cells were cryopreserved at 2.5×10̂6 cells/ml in Recovery™ freezing medium in liquid nitrogen for several days. The cells were thawed into Freestyle™ assay medium prior to use in the assay. The Tango™ P2RY5 U2OS Clone 10F cells were plated at 10,000 cells/well into two 384 well clear bottom assay plate in 32 μl/well Freestyle™ medium. One plate was placed at 37° C./5% CO2 for 18 hours prior to PMA stimulation for 5 hours while PMA was immediately added to the other plate for an 18 hour stimulation. At the time of stimulation 4 μl/well of a 10× stock of DMSO in Freestyle™ medium was added to the wells of the assay plate to bring the final DMSO concentration in the wells to 0.1% DMSO. […]

Sequence of P2RY5 receptor (P43657 with tags, fused parts or gaps DEL128-129/DEL256-257/Q258T): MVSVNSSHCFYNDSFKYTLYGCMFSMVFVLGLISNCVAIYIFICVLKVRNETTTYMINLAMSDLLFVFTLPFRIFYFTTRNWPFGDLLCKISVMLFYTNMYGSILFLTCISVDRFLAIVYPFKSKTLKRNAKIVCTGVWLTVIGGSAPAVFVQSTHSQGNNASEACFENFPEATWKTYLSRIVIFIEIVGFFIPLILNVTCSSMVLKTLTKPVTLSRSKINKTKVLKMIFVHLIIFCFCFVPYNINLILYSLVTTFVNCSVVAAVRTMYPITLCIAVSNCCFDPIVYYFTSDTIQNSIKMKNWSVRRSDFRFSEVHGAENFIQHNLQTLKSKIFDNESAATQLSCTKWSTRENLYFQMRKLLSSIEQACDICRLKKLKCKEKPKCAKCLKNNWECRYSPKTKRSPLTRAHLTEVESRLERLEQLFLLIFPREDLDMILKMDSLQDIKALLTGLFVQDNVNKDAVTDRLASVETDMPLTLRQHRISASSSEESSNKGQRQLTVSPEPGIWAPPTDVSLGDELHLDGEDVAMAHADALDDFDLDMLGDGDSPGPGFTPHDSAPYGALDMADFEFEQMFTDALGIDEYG

`CCCCCCCCCCCCCC(=O)O[C@@H]1[C@@H](C)[C@@]2(O)[C@@H](C=C(CO)C[C@]3(O)C(=O)C(C)=C[C@@H]23)[C@@H]2C(C)(C)[C@]12OC(C)=O` [PMA]: at P2RY5 receptor (Clone 10F, 5 hour stimulation, 0.1% DMSO), the “assay window, 5 hour vs 18 hour stimulation time” value is on record as “larger assay window than the 18 hour stimulation time”. Besides, the “response to PMA, cryopreserved vs dividing cells” value at P2RY5 receptor (Clone 10F, cryopreserved cells, 5 or 18 hours stimulation) is “slightly less potent response”. The “beta-lactamase response through the P2RY5 receptor” value at P2RY5 receptor (Green sort pool, 5 hours stimulation) is listed as “slight inducible beta-lactamase response”; at P2RY5 receptor (sorted clones, 18 hours stimulation), “concentration dependant beta-lactamase response”. The “PMA concentrations with cell death in the wells” value in data set [1] (cryopreserved cells, 18 hours stimulation) was “greater than 100 nM”; in data set [1] (dividing cells, 5 hour stimulation), above 1 µM; in data set [1] (dividing cells, 18 hour stimulation), “greater than 100 nM”.
